# Laboratory results published in paper PMC5855545, “Role of Disulfide Bonds in Activity and Stability of Tigerinin-1R” (International Journal of Molecular Sciences, 2018).
# “Also recorded” adds a separate entry of the source.
# How the values were obtained:
# INS-1 cells [1] = test: Protection against palmitic acid-induced apoptosis (MTT viability); format: cell-based, rat; conditions: 0.5 mM PA, 24 h
# Description: Solutions of free fatty acids (FFAs) were prepared. Briefly, 100 mM palmitic acid (PA) stocks (Sigma, St. Louis, MO, USA) were prepared in 0.1 M NaOH at 70 °C. Ten percent (w/v) FFA-free BSA (Roche, Mannheim, Germany) solution was prepared in PBS buffer. A 5 mM FFA/10% BSA solution was prepared by mixing 50 μL FFA to 950 μL 10% BSA in a 60 °C water bath. The above solution was then cooled to room temperature, diluted in RPMI 1640 to 0.5 mM and filtered. Cells were added into 96-well plates (5 × 10^3 cells/well). Complete medium was withdrawn after overnight incubation at 37 °C. One hundred microliters of different peptides corresponding to a serial dilution series (concentrations 10^−9, 10^−7, 10^−5 M) diluted with medium containing 0.5 mM PA, was added for another 24 h. Meanwhile, incubation in fresh medium, with or without PA, were set as positive and negative controls, respectively. At the end of incubation, 20 μL of MTT solution (5 mg/mL in PBS) was added to each well and further incubated at 37 °C for 4 h. Cell viability was determined by dissolving the crystallized MTT with dimethyl sulfoxide (150 μL/well).
# [2] = Reversed-phase HPLC retention time (relative hydrophobicity); format: physicochemical; conditions: RP-HPLC at 25 °C; Zorbax 300 SB-C8 150 × 4.6 mm, linear AB gradient 1% acetonitrile/min, 1 mL/min, A 0.1% aqueous TFA pH 2, B 0.1% TFA in acetonitrile
# INS-1 cells [3] = test: Insulin-releasing activity in vitro (rat insulin ELISA); format: cell-based; conditions: 2.8 mM glucose; for insulin release at 10^−5 M compared with tigerinin-1R: 10^−5 M peptide, 1 h in KRB buffer at 37 °C, triplicate
# Description: INS-1 cells were harvested with trypsin/EDTA, seeded into 6-well plates (3–5 × 10^5 cells/well), and allowed to attach overnight. Prior to the test, cells were preincubated in 1 mL Krebs-Ringer bicarbonate (KRB) buffer without glucose (115 mMNaCl, 4.7 mMKCl, 1.28 mM CaCl2,1.2 mM KH2PO4, 1.2 mM MgSO4, 10 mM NaHCO3, and 1 g/L BSA, pH 7.4) at 37 °C for 45 min. Cells were then incubated in the absence or presence of peptides for 1 h, using the same buffer with 2.8 mM glucose. The insulin supernatants were collected, and subsequently analyzed using ultrasensitive rat insulin ELISA kits (Mercodia, Sweden). The assay was repeated in triplicate.
# [4] = Peptide degradation assay in 10% fetal bovine serum; format: in vitro ADME; conditions: 200 μM peptide in PBS, 37 °C
# Description: Peptides dissolved in PBS to a final concentration of 200 μM were incubated with 10% fetal bovine serum at 37 °C. At different time points (0, 60, and 120 min), 20 μL peptide samples were taken and diluted with an equal volume of 0.1% aqueous trifluoroacetic acid (TFA). The samples were then analyzed by RP-HPLC. The experiment was performed on a Shimadzu HPLC system with a Zorbax 300 SB-C8 column (150 × 4.6 mm I.D.; 5 µm particle size, 300 Å pore size; Agilent Technologies, Palo Alto, CA, USA) using a linear AB gradient (1% acetonitrile/min) and a flow rate of 1 mL/min, where solvent A was 0.1% aqueous TFA, pH 2, and solvent B was 0.1% TFA in acetonitrile at 25 °C.
# INS-1 cells [5] = test: Measurement of intracellular Ca2+ (Fluo-3 AM, confocal microscopy); format: cell-based, rat; conditions: 10^−5 M peptide, 2.8 mM glucose; less than 30 mM KCl, significantly greater than glucose alone
# Description: INS-1 cells (2 × 10^5) were cultured in glass bottom dishes (NEST, Wuxi, China). Following overnight culture, the cells were washed with KRB buffer three times, and then incubated with 5 μM fluorescent Ca^2+ probe Fluo-3 AM solution (Solarbio, Beijng, China). After loading for 30 min and washing three times with KRB buffer, cells were incubated for 15 min in the absence of Fluo-3 AM. KRB buffer supplemented with 2.8 mM glucose containing 10^−5 M peptide was then added. Images of cells were obtained by laser scanning confocal microscope (LSM710, Carl Zeiss, Oberkochen, Germany). The fluorescence was excited at 480 nm at 4 s intervals, and detected at 515 nm. Incubations in the presence of 2.8 mM glucose alone (negative control) or extra 30 mM KCl (positive control) were also carried out individually.
# Kunming male mice = test: Glucose tolerance in vivo in overnight-fasted mice; parameters: species or system mouse; conditions: n = 6
# Description: Kunming male mice were housed individually in an air-conditioned room (22 ± 2 °C) with a 12 h light/12 h dark cycle, and were handled in accordance with the Guide for Care and Use of Laboratory Animals in China and approved by the animal ethics committee of Jilin University (Approval No. JLUSWLL003, Jilin, China; dated on 10 May 2017). Drinking water and standard laboratory chow were freely available. No adverse effects were observed following administration of the peptides. Age-matched groups (n = 6) of overnight-fasted mice received an intraperitoneal injection of either glucose (18 mmol/kg body weight), tigerinin-1R (75 nmol/kg body weight), or [C11K]tigerinin-1R (75 nmol/kg body weight) individually as control groups, and glucose in combination with tigerinin-1R or glucose in combination with [C11K]tigerinin-1R as experimental groups, respectively. All solutions were administered in 0.9% NaCl (5 mL/kg body weight). Blood samples were collected from the cut tip of the tail vein of conscious mice, before injection and at 15, 30, 60, and 120 min immediately after injection, and glucose was measured using a Sannuo stable blood glucose meter (Changsha, China) using corresponding test strips.
# bacteria = conditions: cited from earlier work
# From the text: (§1) Tigerinin-1R (Arg–Val–Cys–Ser–Ala–Ile–Pro–Leu–Pro–Ile–Cys–His–NH2) is a cationic peptide containing a disulfide bond that is isolated from the skin secretions of Hoplobatrachus ugulosus. […] In vivo studies have shown that administration of tigerinin-1R or some of its analog ...
# high-fat fed mice = conditions: administration to high-fat fed mice; cited from earlier work
# From the text: as §1
compound,measurement,setting,value
"CCCCCCCCCCCCCCCC(=O)O [PA, palmitic acid]",viability of INS-1 cells with PA (positive control),INS-1 cells [1],58.24%
Ac-RVASAIPLPIAH-NH2 [tigerinin-linear],"tR (min), retention time during reversed-phase HPLC (relative hydrophobicity)",[2],11.590 min
same,insulin release at 10^−5 M compared with tigerinin-1R,INS-1 cells [3],lower insulin-releasing activity than tigerinin-1R
Ac-RVCSAIPLPIKH-NH2 [[C11K]tigerinin-1R],stability: RP-HPLC peak area of intact peptide after 60 min,[4]; 60 min,decreased dramatically
same,stability: RP-HPLC peak area of intact peptide at/within 120 min,[4],almost disappeared
"CSAIPLPIC-amide (C–C) (disulfide) [tigerinin-cyclic, tigerinin-1R analog retaining only the cyclic moiety]",insulin release at 10^−5 M compared with tigerinin-1R,INS-1 cells [3],decrease in insulin-releasing ability
"RVCSAIPLPICH-amide (C–C) (disulfide) [tigerinin-1R, Arg–Val–Cys–Ser–Ala–Ile–Pro–Leu–Pro–Ile–Cys–His–NH2, cationic 12-mer peptide containing a disulfide bond, from frog skin secretions; parent peptide, synthesized here]","tR (min), retention time during reversed-phase HPLC (relative hydrophobicity)",[2],19.465 min
same,insulin secretion of INS-1 cells at different peptide concentrations,"INS-1 cells [3]; 10^−8 to 10^−5 M, 1 h in KRB buffer pH 7.4 at 37 °C, compared to 2.8 mM glucose alone, n = 3",concentration-dependent manner
same,concentration of intracellular Ca2+ (Fluo-3 fluorescence),INS-1 cells [5],produced an increase in the concentration of intracellular Ca^2+
same,plasma glucose concentrations after peptide alone,"Kunming male mice; 75 nmol/kg peptide i.p. alone, without glucose injection",little change in plasma glucose concentrations
same,glucose tolerance / hypoglycemic ability (plasma glucose),"Kunming male mice; 75 nmol/kg peptide i.p. with glucose 18 mmol/kg, 15-120 min",improved glucose tolerance; also recorded: higher hypoglycemic ability than [C11K]tigerinin-1R
same,stability: RP-HPLC peak area of intact peptide at/within 120 min,[4],changed very little
same,antibacterial activity,bacteria,lacks antibacterial activity
same,insulin release and glucose tolerance in high-fat fed mice,high-fat fed mice,significantly enhanced insulin release and improved glucose tolerance
